This is an account of results in patent US20230257372A1 (CHONG KUN DANG PHARMACEUTICAL CORP., priority 2020, published 2023).

Test [1] concerns the target T1, human recombinant HDAC6 (Homo sapiens, UniProt Q9UBN7).
T1 construct: purchased Calbiochem Inc. 382180
T1 sequence (Q9UBN7 1-1215): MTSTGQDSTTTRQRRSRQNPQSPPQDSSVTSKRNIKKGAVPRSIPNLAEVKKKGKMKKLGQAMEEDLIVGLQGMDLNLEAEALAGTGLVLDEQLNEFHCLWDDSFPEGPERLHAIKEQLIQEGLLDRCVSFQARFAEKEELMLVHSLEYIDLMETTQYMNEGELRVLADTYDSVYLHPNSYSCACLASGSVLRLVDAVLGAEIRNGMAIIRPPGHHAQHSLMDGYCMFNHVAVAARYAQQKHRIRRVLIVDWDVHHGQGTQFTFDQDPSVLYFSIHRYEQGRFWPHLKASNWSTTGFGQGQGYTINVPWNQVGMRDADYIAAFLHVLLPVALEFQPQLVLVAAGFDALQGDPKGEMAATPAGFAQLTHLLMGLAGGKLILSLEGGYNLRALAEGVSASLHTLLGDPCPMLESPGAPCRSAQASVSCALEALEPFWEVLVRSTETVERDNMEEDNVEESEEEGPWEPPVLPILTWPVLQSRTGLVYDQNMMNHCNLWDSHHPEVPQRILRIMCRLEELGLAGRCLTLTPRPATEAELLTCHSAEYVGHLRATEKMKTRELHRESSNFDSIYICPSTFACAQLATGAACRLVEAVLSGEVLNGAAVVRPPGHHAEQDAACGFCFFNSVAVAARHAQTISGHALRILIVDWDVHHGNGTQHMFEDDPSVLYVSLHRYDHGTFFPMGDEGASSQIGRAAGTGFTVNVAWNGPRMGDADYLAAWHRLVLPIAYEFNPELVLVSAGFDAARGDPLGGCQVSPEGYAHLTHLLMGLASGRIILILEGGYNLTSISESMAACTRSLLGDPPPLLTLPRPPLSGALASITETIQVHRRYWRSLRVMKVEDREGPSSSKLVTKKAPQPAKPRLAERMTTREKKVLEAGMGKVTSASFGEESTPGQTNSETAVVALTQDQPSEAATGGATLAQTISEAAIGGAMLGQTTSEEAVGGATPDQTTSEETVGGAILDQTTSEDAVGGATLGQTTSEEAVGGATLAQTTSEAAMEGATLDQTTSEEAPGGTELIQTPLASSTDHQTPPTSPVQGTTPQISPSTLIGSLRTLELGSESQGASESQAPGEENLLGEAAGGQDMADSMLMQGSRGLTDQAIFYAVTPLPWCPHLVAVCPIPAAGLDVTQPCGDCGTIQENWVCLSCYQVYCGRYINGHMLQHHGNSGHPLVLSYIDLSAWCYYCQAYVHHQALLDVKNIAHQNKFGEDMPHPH
Description: HDAC6 enzyme activity inhibition (HDAC Fluorimetric Drug Discovery Kit). It is filed as biochemical. Put shortly:
(§1)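 Enzyme at 0.3 µg per well was reacted with 10 μM fluorogenic substrate in presence of 5-fold diluted compound, 30° C for 60 min.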

The target of test [2] is T2, human recombinant HDAC1 (Homo sapiens, UniProt Q13547).
T2 construct: purchased Enzo Life Science, Inc. BML-SE456
Description: HDAC1 enzyme activity inhibition (HDAC Fluorimetric Drug Discovery Kit). In kind it is biochemical. Conditions: read-out: HDAC1. Put shortly:
as §1

The test system of test [3] is hippocampal neurons from a Sprague-Dawley (SD) rat fetus. Description: Effect of HDAC6-specific inhibitor on axonal transport of mitochondria in amyloid-beta treated neurons. Conditions: transport velocity of mitochondria in neuronal axon after normalization; vehicle = 100%, amyloid beta treatment group = 0%; compound treatment for three hours. In kind it is cell-based. As for the experimental part:
On the 17th to 18th days (E17-18) of insemination, the hippocampal neurons from a Sprague-Dawley (SD) rat fetus were cultured in a culture container for imaging, which had been coated with extracellular matrix, and were treated with amyloid-beta protein fragments at a concentration of […]. In 24 hours later, the neurons were treated with the compound on the 8th day of in vitro culture. In three hours later, the resulting neurons were treated with MitoTracker Red CMXRos (Life Technologies, NY, USA) for last five minutes to stain mitochondria. An image on the axonal transport of stained neuron mitochondria was taken with a confocal microscope (Leica SP8; Leica microsystems, UK) at an interval of one second for one minute to measure a transport velocity of each mitochondria per second with an IMARIS analysis program (BITPLANE, Zurich, Switzerland).
In result, after setting a section, in which the group treated with amyloid-beta had shown a significant decrease in the transport velocity of mitochondria compared to a vehicle, it was confirmed for 1,3,4-oxadiazole triazol derivative compounds of the present invention, stereoisomers thereof or pharmaceutically acceptable salts thereof that the vehicles is represented as 100%, the amyloid beta treatment group is represented as 0%, a velocity distribution of the compound after normalization is represented as *, 0%˜50%; **, 50%˜100%; ***, >100%.

The mark [4] stands for this setting: human recombinant HDAC6, IC50 calculated with GraphPad Prism.
The mark [5] stands for this setting: human recombinant HDAC1, IC50 calculated with GraphPad Prism.
Where [6] appears, read: human recombinant HDAC6, same protocol as HDAC1.
Setting [7] is: human recombinant HDAC1, Fluor de Lys substrate, 30° C. 60 minutes.

Read-outs that look alike come from different tables or passages of the source.

T2 sequence (Q13547 whole entry): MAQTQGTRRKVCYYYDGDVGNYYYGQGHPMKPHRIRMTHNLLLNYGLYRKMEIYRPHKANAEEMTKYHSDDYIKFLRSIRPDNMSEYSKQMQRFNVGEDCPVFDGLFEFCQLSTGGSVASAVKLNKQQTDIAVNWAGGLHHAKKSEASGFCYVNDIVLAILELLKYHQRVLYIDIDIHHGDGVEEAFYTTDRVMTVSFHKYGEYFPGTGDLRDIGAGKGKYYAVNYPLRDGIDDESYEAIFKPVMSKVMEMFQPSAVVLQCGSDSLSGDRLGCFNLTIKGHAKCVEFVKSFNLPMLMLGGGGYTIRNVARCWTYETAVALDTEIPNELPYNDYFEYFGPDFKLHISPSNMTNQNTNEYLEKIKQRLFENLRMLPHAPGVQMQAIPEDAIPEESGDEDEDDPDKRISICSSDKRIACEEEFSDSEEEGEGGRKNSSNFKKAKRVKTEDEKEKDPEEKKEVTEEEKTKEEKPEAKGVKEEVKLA

For the compound `CC(C)N1CC(N2CCC(c3cccc(-c4cn(Cc5ccc(-c6nnc(C(F)F)o6)cc5F)nn4)c3)CC2)C1` [Compound 4296], the “HDAC6 selectivity (fold)” value in test [1] (HDAC1 IC50 / HDAC6 IC50) was 1547 fold. In addition, the results for the IC50 in test [1] (setting [4]) and in test [2] (setting [5]) were 32.3 nM and over 50000 nM, respectively. For the same compound, in test [3], the “Velocity distribution (%)” value is given as “** (**, 50%˜100%)”.
On to `Cc1cc2ccc(-c3cn(Cc4ccc(-c5nnc(C(F)F)o5)cn4)nn3)cc2[nH]1` [Compound 4287, 2-(difluoromethyl)-5-(6-((4-(2-methyl-1H-indol-6-yl)-1H-1,2,3-triazol-1-yl)methyl)pyridin-3-yl)-1,3,4-oxadiazole], for which, in test [1] (HDAC1 IC50 / HDAC6 IC50), the “HDAC6 selectivity (fold)” value was found to be 2092 fold. Besides, the IC50 in test [1] (setting [4]) is 23.9 nM; in test [2] (setting [5]), over 50000 nM. Besides, the “Velocity distribution (%)” value in test [3] was “*** (***, >100%)”.
For the compound `Fc1cc(-c2nnc(C(F)F)o2)cnc1Cn1cc(-c2ccc(CN3CCC3)cc2)nn1` [Compound 18306, 2-(6-((4-(4-(azetidin-1l-ylmethyl)phenyl)-1H-1,2,3-triazol-1-yl)methyl)-5-fluoropyridin-3-yl)-5-(difluoromethyl)-1,3,4-oxadiazole], in test [1] (HDAC6 over HDAC1), the “HDAC6 selectivity (fold)” value worked out at 1184 fold. Moreover, the values for the IC50 in test [1] (setting [6]) and in test [2] (setting [7]) were 42.2 nM and over 50000 nM, respectively. Moreover, the “Velocity distribution (%)” value in test [3] is “*** (***, >100%)”.
For the compound `FC(F)c1nnc(-c2ccc(Cn3cc(-c4cnc5[nH]ccc5c4)nn3)nc2)o1` [Compound 3841, 2-(6-((4-(1H-pyrrolo[2,3-b]pyridin-5-yl)-1H-1,2,3-triazol-1-yl)methyl)pyridin-3-yl)-5-(difluoromethyl)-1,3,4-oxadiazole], the “HDAC6 selectivity (fold)” value in test [1] (HDAC1 IC50 / HDAC6 IC50) amounted to 5952 fold. In addition, the IC50 in test [1] (setting [4]) is 8.4 nM; in test [2] (setting [5]), over 50000 nM. For the same compound, the “Velocity distribution (%)” value in test [3] is reported as “*** (***, >100%)”.
`CN1CCN(c2cccc(-c3cn(Cc4ccc(-c5nnc(C(F)F)o5)cn4)nn3)c2)CC1` [Compound 3867, 2-(difluoromethyl)-5-(6-((4-(3-(4-methylpiperazin-1-yl)phenyl)-1H-1,2,3-triazol-1-yl)methyl)pyridin-3-yl)-1,3,4-oxadiazole]: the “HDAC6 selectivity (fold)” value in test [1] (HDAC1 IC50 / HDAC6 IC50) amounted to 1953 fold. For the same compound, the IC50 in test [1] (setting [4]) is 25.6 nM; in test [2] (setting [5]) it was over 50000 nM. In addition, the “Velocity distribution (%)” value in test [3] was “** (**, 50%˜100%)”.
On to `COC(=O)Nc1cccc(-c2cn(Cc3ccc(-c4nnc(C(F)F)o4)cc3F)nn2)c1` [Compound 3776, Methyl (3-(1-(4-(5-(difluoromethyl)-1,3,4-oxadiazol-2-yl)-2-fluorobenzyl)-1H-1,2,3-triazol-4-yl)phenyl)carbamate], for which the “HDAC6 selectivity (fold)” value in test [1] (HDAC1 IC50 / HDAC6 IC50) is 1984 fold. Further, the IC50 in test [1] (setting [4]) is 25.2 nM; in test [2] (setting [5]) it was over 50000 nM. For the same compound, in test [3], the “Velocity distribution (%)” value is “*** (***, >100%)”.
For `Fc1cccc(-c2cn(Cc3ccc(-c4nnc(C(F)F)o4)cn3)nn2)c1` [Compound 3854, 2-(difluoromethyl)-5-(6-((4-(3-fluorophenyl)-1H-1,2,3-triazol-1-yl)methyl)pyridin-3-yl)-1,3,4-oxadiazole], the “HDAC6 selectivity (fold)” value in test [1] (HDAC1 IC50 / HDAC6 IC50) came out at 1259 fold. The IC50 in test [1] (setting [4]) is 39.7 nM; in test [2] (setting [5]), over 50000 nM. In addition, the “Velocity distribution (%)” value in test [3] is recorded as “*** (***, >100%)”.
Turning to `CC1CCN(Cc2c[nH]c3cc(-c4cn(Cc5ccc(-c6nnc(C(F)F)o6)cn5)nn4)ccc23)CC1` [Compound 4111, 2-(difluoromethyl)-5-(6-((4-(3-((4-methylpiperidin-1-yl)methyl)-1H-indol-6-yl)-1H-1,2,3-triazol-1-yl)methyl)pyridin-3-yl)-1,3,4-oxadiazole], in test [1] (HDAC1 IC50 / HDAC6 IC50), the “HDAC6 selectivity (fold)” value was found to be 4587 fold. Moreover, the IC50 was 10.9 nM in test [1] (setting [4]) and over 50000 nM in test [2] (setting [5]). Moreover, in test [3], the “Velocity distribution (%)” value is “** (**, 50%˜100%)”.
For `Fc1cc(-c2nnc(C(F)F)o2)ccc1Cn1cc(-c2cccc3[nH]ncc23)nn1` [Compound 4348, 2-(4-((4-(1H-indazol-4-yl)-1H-1,2,3-triazol-1-yl)methyl)-3-fluorophenyl)-5-(difluoromethyl)-1,3,4-oxadiazole], the “HDAC6 selectivity (fold)” value in test [1] (HDAC1 IC50 / HDAC6 IC50) is on record as 7352 fold. For the same compound, the IC50 in test [1] (setting [4]) was 6.8 nM; in test [2] (setting [5]) it was over 50000 nM. Besides, the “Velocity distribution (%)” value in test [3] is reported as “** (**, 50%˜100%)”.
`Fc1cc(-c2nnc(C(F)F)o2)ccc1Cn1cc(-c2ccc3c(CN4CCCC4)c[nH]c3c2)nn1` [Compound 4109, 2-(difluoromethyl)-5-(3-fluoro-4-((4-(3-(pyrrolidin-1-ylmethyl)-1H-indol-6-yl)-1H-1,2,3-triazol-1-yl)methyl)phenyl)-1,3,4-oxadiazole]: in test [1] (HDAC1 IC50 / HDAC6 IC50), the “HDAC6 selectivity (fold)” value is recorded as 3649 fold. In addition, the IC50 in test [1] (setting [4]) was 13.7 nM; in test [2] (setting [5]), over 50000 nM. Further, the “Velocity distribution (%)” value in test [3] is recorded as “*** (***, >100%)”.
Take `FC(F)c1nnc(-c2ccc(Cn3cc(-c4ccc5[nH]ccc5c4)nn3)cc2)o1` [Compound 4080, 2-(4-((4-(1H-indol-5-yl)-1H-1,2,3-triazol-1-yl)methyl)phenyl)-5-(difluoromethyl)-1,3,4-oxadiazole]: in test [1] (HDAC1 IC50 / HDAC6 IC50), the “HDAC6 selectivity (fold)” value was found to be 2145 fold. Besides, the IC50 in test [1] (setting [4]) is 23.3 nM; in test [2] (setting [5]) it was over 50000 nM. The “Velocity distribution (%)” value in test [3] is recorded as “*** (***, >100%)”.
With `FC(F)c1nnc(-c2ccc(Cn3cc(-c4cccc(C5CCN(C6COC6)CC5)c4)nn3)nc2)o1` [Compound 4013, 2-(difluoromethyl)-5-(6-((4-(3-(1-(oxetan-3-yl)piperidin-4-yl)phenyl)-1H-1,2,3-triazol-1-yl)methyl)pyridin-3-yl)-1,3,4-oxadiazole], in test [1] (HDAC1 IC50 / HDAC6 IC50), the “HDAC6 selectivity (fold)” value is listed as 2183 fold. The results for the IC50 in test [1] (setting [4]) and in test [2] (setting [5]) were 22.9 nM and over 50000 nM, respectively. The “Velocity distribution (%)” value in test [3] is recorded as “** (**, 50%˜100%)”.
Consider `CC1CCN(Cc2ccc(-c3cn(Cc4ncc(-c5nnc(C(F)F)o5)cc4F)nn3)cc2)CC1` [Compound 18307, 2-(difluoromethyl)-5-(5-fluoro-6-((4-(4-((4-methylpiperidin-1-yl)methyl)phenyl)-1H-1,2,3-triazol-1-yl)methyl)pyridin-3-yl)-1,3,4-oxadiazole], for which, in test [1] (HDAC6 over HDAC1), the “HDAC6 selectivity (fold)” value came to 1028 fold. The IC50 in test [1] (setting [6]) was 48.6 nM; in test [2] (setting [7]), over 50000 nM. Also, the “Velocity distribution (%)” value in test [3] is reported as “*** (***, >100%)”.
For `FC(F)c1nnc(-c2ccc(Cn3cc(-c4ccc5cc[nH]c5c4)nn3)nc2)o1` [Compound 3838, 2-(6-((4-(1H-indol-6-yl)-1H-1,2,3-triazol-1-yl)methyl)pyridin-3-yl)-5-(difluoromethyl)-1,3,4-oxadiazole], the “HDAC6 selectivity (fold)” value in test [1] (HDAC1 IC50 / HDAC6 IC50) turned out to be 7142 fold. In addition, the IC50 in test [1] (setting [4]) was 7 nM; in test [2] (setting [5]), over 50000 nM. For the same compound, the “Velocity distribution (%)” value in test [3] is reported as “* (*, 0%˜50%)”.
